In patent US20140235548A1, “COMPOSITIONS AND METHODS FOR JAMM PROTEIN INHIBITION” (Cleave Biosciences, Inc., priority 2011, published 2014):
Read-outs that look alike come from different tables or passages of the source. Where a SMILES comes first, the peptide text is derived from it. The star is where a group is joined. Cbz = O=C(OCc1ccccc1)*

What was measured:
[1] = target: T1, Rpn11 (Homo sapiens, UniProt O00487); experiment: Rpn11 fluorescence polarization assay with 26S proteasome and Ub4-peptide-Oregon Green substrate; format: biochemical
Source text: As seens in FIG. 4A) the Rpn11 substrate consisted of six histidine residues followed by four ubiquitin sequences fallowed by the peptide sequence […]. The Oregon Green fluorophore was attached to the cysteine residue via maleimide chemistry. Following cleavage of the substrate by Rpn11, the product […] coupled to Oregon Green was released. The change in molecular weight of Oregon Green containing protein was detected by fluorescence polarization. The Rpn11 reaction can he inhibited with compound 1. In FIG. 4(B) progress curves for product generation by 26S proteasome (which contains Rpn11). Rpn11 cleaves the substrate immediately after the fourth ubiquitin (Ub). 5 nM Ub-Ub-Ub-Ub-peptide-oregon green substrate was incubated with 0.5 nM purified 26S proteasome for 120 min at room temperature. As labeled peptide is liberated, the fluorescence polarization diminishes. The cleavage reaction can be inhibited by the o-phenanthroline. In FIG. 4(C-E) dose-response curve for inhibition of Rpn11 by compound 1 (C), 3-hydroxy-4H-pyran-4-thione (D) or o-phenanthroline (E) were generated by adding varying doses of compound to the reaction mixture. At 120 minutes, fluorescence polarization was measured. Percent activity was calculated based on the amount of enzyme activity observed in the absence of added test agent.
An 8-point compound 001 dose titration curve was performed, by incubating Rpn11-containing 26S proteasome, Rpn11 substrate and compound (dose range 50 μM to 0.1 μM) and monitoring fluorescence polarization as per BIOEXAMPLE 4. Remaining activity as compared to DMSO control (% activity) was calculated and plotted versus compound 1 concentration and the curve was fit to a four-parameter fit model to obtain an IC50 value.

[2] = target: T2, AMSH-LP (Homo sapiens, UniProt Q96FJ0); experiment: AMSH-LP assay: di-ubiquitin K63 cleavage to mono-ubiquitin (SDS-PAGE, anti-ubiquitin blot); format: biochemical; conditions: AMSH-LP 50 nM, di-ubiquitin K63 1 μM, 20 hours at room temperature; read-out: approximate IC50, mono-ubiquitin product formation
T2 sequence (Q96FJ0 1-436): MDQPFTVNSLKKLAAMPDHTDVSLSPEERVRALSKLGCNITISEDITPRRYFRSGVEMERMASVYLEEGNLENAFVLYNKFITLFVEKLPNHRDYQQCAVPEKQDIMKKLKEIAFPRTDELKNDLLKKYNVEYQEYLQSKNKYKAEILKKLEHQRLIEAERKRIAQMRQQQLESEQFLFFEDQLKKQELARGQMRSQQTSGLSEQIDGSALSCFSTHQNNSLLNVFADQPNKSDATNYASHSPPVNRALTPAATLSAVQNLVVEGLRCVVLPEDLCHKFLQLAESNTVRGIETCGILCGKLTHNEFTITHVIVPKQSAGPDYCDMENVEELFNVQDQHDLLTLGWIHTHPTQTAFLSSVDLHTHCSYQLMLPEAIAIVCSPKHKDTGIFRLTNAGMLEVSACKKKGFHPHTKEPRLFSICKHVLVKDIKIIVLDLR
Source text: Formation of product is dependant on the presence of AMSH-LP (lane 1).

[3] = tested on: neddylated forms of Cullins 1, 2, and 4A; experiment: Accumulation of neddylated Cullins 1, 2 and 4A in HEK-293T cells (immunoblot); format: cell-based, human; conditions: 15 min at 37° C.
Protocol: Test compounds include Compound 1 (“Test Compound 1”), Compound 101 (“Test Compound 2”), and MLN4924 (“Comparison Compound”; Sulfamic acid, [(1S,2S,4R)-4-[4-[[(1S)-2,3-dihydro-1H-inden-1-yl]amino]-7H-pyrrolo[2,3-d]pyrimidin-7-yl]-2-hydroxycyclopentyl]methyl ester; CAS Reg. No. 905579-51-3). Human HEK-293T cells were treated with 100 μM compound 1, 100 μM compound 101, 3 μM MLN4924 or 1% DMSO for 15 min. at 37° C. At the end of the incubation, cells were harvested and lysed. All cell lysates were fractionated by SDS-PAGE, proteins were transferred to nitrocellulose, and Cu11, Cu12 and Cu14 was detected by immunoblotting with an antibody that recognizes human Cu11, Cu12 or Cu14. Cu11-N8: human Cu11 modified with Nedd8. Cu12-N8: human Cu12 modified with Nedd8. Cu14-N8: human Cu14 modified with Nedd8.

[4] = target: T1, Rpn11; experiment: Ub^G76V-GFP proteasome reporter degradation in HeLa cells (Rpn11 activity in cells); format: cell-based; conditions: cycloheximide, 90 min at 37° C., quantitative fluorescence microscopy, read-out: IC50, level of remaining Ub^G76V-GFP
[5] = target: T3, CSN5 (Homo sapiens, UniProt Q92905); experiment: Csn5 fluorescence polarization assay: release of Nedd8OG from Cul1-Nedd8OG / SCF^Skp2-Nedd8OG by CSN; format: biochemical
[6] = target: T3, CSN5; experiment: Cell-based Csn5 assay: Cul1 neddylation in HEK-293T cells (immunoblot); set-up: endogenous in cells; host or cells: HEK-293T; conditions: 30 min, increasing concentration
Protocol: Because cullins undergo a dynamic cycling between neddylated and unneddylated forms by the action of NAE1 and Csn5, respectively, a Csn5 inhibitor will block the removal of Nedd8 from cullin resulting in the accumulation of Nedd8-cullin. HEK-293T cells were treated with compound 001 for 30 min., washed with PBS and lysed in gel loading buffer. Clarified cell lysates (40 μg) were electrophoresed, transferred to nitrocellulose and immunoblotted with α-Cu11 or α-actin sera.

[7] = 0.5 nM 26S proteasome, 5 nM substrate, 120 min, room temperature (FIG. 4C-E), read-out: IC50, inhibition of Rpn11
[8] = Bioexample 16 table, read-out: RPN11 IC50
[9] = Bioexample 16 table, read-out: CSN5 IC50

SMILES	IC50 [1, 7] [nM]	IC50 [4] [nM]	IC50 [1, 8] [nM]	IC50 [5, 9] [nM]	also measured
Oc1coccc1=S [3-hydroxy-4H-pyran-4-thione, reference compound]	600				
Sc1cccc2cccnc12 [Compound 1, 8-quinolinethiol]	3300	120	1100		IC50 [2]: ~1600 nM; conversion of Cu11, Cu12 and Cu14 to Nedd8-modified species ([3]; 100 μM): largely modified with Nedd8; IC50 ([5]; Cop9 signalsome, 8-point titration 100 μM to 0.05 μM, four-parameter fit (FIG. 11), read-out: IC50 on Csn5): 6500 nM; IC50 ([5]; purified CSN, fluorescence polarization, dose escalation (FIG. 2B), read-out: IC50, CSN release of Nedd8OG from Cu11-Nedd8OG): 3800 nM; shift of Cu11 between unneddylated and neddylated form [6]: shifts the Cu11 population from the undeddylated to the neddylated form
Cc1ccc2cccc(S)c2n1 [Compound 3, 8-SH-2-Me-quinoline]			6100		
CC(C)C[C@@H](C=O)NC(=O)[C@H](CC(C)C)NC(=O)[C@H](CC(C)C)NC(=O)OCc1ccccc1 [MG132, N-(benzyloxycarbonyl)leucinylleucinylleucinal] (Cbz-Leu-Leu-Leu-aldehyde)		230			
NS(=O)(=O)OC[C@@H]1C[C@@H](n2ccc3c(N[C@H]4CCc5ccccc54)ncnc32)C[C@@H]1O [MLN4924, Sulfamic acid, [(1S,2S,4R)-4-[4-[[(1S)-2,3-dihydro-1H-inden-1-yl]amino]-7H-pyrrolo[2,3-d]pyrimidin-7-yl]-2-hydroxycyclopentyl]methyl ester, reference compound]					conversion of Cu11, Cu12 and Cu14 to Nedd8-modified species ([3]; 3 μM): remain in the non-neddylated form

Now from value to molecule, other results behind:

IC50 [1, 7] [nM]	IC50 [4] [nM]	IC50 [1, 8] [nM]	IC50 [5, 9] [nM]	SMILES	also measured
		1300	7700	Cc1cnc2c(S)cccc2c1 [Compound 4]	
		2500	22200	Cc1ccnc2c(S)cccc12 [Compound 5]	
		1100	4100	Cc1ccc(S)c2ncccc12 [Compound 6]	
		800		Cc1cc(S)c2ncccc2c1 [Compound 7]	
158000	590000			c1cnc2c(c1)ccc1cccnc12 [o-phenanthroline, reference compound]	
